Reference: patent US20150374705A1, “Substances for treatment or relief of pain” (Shanghai Institues for Biological Sciences, priority 2012, published 2015)
“Also recorded” adds a separate entry of the source.

Columns and labels:
[1] = system: CFA induced inflammatory pain model rats (mechanical pain); test: CFA induced inflammatory pain model, mechanical pain threshold; assay type: in vivo; settings: rat, 1 hour after administration
[2] = biological target: T1, Human recombinant GABAA receptor containing α2 subunit (α2, β3, γ2) (Homo sapiens, UniProt P18507+P47869); test: Competitive radioligand binding ([3H]Ro-0151788) on membranes of 293 cells, Ki; settings: human recombinant GABAA subtype containing α2; read-out: Affinity, nM (α2)
T1 construct: expressed in transfected cells; host or cells: 293 cell line
Protocol: (§1) Different subunits of GABAA receptor were expressed in cell lines, including human kidney epithelial cell line, 293 cell line or L(tk−) cell line. The cells were cultured in medium, and such cells were used as the cellular model for screening drugs to suppress pain. a subunit, β subunit and γ subunit are indispensable for one complete functional GABAA receptor.
(§2) In this example, the inventors established the following cellular models:
(§3) (b) simultaneously expressing α1 subunit (GenBank accession number: NM_001127648.1), β3 subunit and γ2 subunit in 293 cell line, forming the GABAA receptor containing α1 subunit; • (c) simultaneously expressing α2 subunit (for the protein sequence, see GenBank accession number NM_000813.2), β3 subunit and γ2 subunit in 293 cell line, forming the GABAA receptor containing α2 subunit;
(§4) Each of the (a) to (d) above could form a GABAA receptor with complete function.
(§5) Then, the cellular membrane was extracted and the protein concentration was measured. The competitive binding of the substances to be measured and radiolabelled compounds (e.g. 1 nM [^3H]Ro-0151788) were detected respectively to calculate the Ki value of the substances to be measured, see the method described in literature (Ballard T M et al., RO4938581, a novel cognitive enhancer acting at GABAA alpha5 subunit-containing receptors. Psychopharmacology (Berl). 2009 January; 202(1-3): 207-23). If the binding inhibition constant Ki (nM) of α5-GABAA receptor with the candidate substances in experimental group is less than the Ki of the receptor containing other a subunit (α1 subunit, α2 subunit or α3 subunit), then the candidate substance is a potential drugs for preventing, relieving or treating pain. Many methods can be used by those skilled in the art to evaluate the binding capacity of the ligand of α5-GABAA receptor to the α5-GABAA receptor, including but not limiting to the method above.

[3] = biological target: T2, Human recombinant GABAA receptor containing α1 subunit (α1, β3, γ2) (Homo sapiens, UniProt P14867+P18507); test: as above; settings: human recombinant GABAA subtype containing α1; read-out: Affinity, nM (α1)
T2 construct: expressed in transfected cells; host or cells: 293 cell line
Protocol: as §1, §2, §3, §4, §5

[4] = biological target: T3, Human recombinant α5-GABAA receptor (Homo sapiens, UniProt P18507+P31644); test: Electrophysiological inverse agonist efficacy on GABA-induced current; assay type: cell-based; settings: change of GABA-induced current; negative = inhibition
T3 construct: expressed in transfected cells; host or cells: 293 cell line
Protocol: as §1
(§6) (a) simultaneously expressing α5 subunit (for the protein sequence, see GenBank accession number NM_001165037.1), β3 subunit (for the protein sequence, see GenBank accession number NM_021912.4) and γ2 subunit (for the protein sequence, see GenBank accession number NM_198904.2) in 293 cell line, forming the GABAA receptor containing α5 subunit;
(§7) The inventors used electrophysiological methods to measure the inverse agonist efficacy of the substances to be measured, see the method described in literature (Ballard T M et al., RO4938581, a novel cognitive enhancer acting at GABAA alpha5 subunit-containing receptors. Psychopharmacology (Berl). 2009 January; 202 (1-3): 207-23). […] Many methods can be used by those skilled in the art to evaluate the binding capacity of the ligand of α5-GABAA receptor to the α5-GABAA receptor, including but not limiting to the method above.
(§8) Inverse agonist efficacy represents the inhibition percentage of the candidate substance on the current induced by GABA through α5-GABAA receptor=(the current intensity induced by GABA through α5-GABAA receptor with the existence of candidate substance−the current intensity induced by GABA through α5-GABAA receptor without the existence of candidate substance)/the current intensity induced by GABA through α5-GABAA receptor without the existence of candidate substance.

[5] = biological target: T4, Human recombinant GABAA receptor containing α3 subunit (Homo sapiens, UniProt P18507+P34903); test: as above; assay type: cell-based; settings: change of GABA-induced current; negative = inhibition
T4 construct: expressed in transfected cells; host or cells: 293 cell line
Protocol: as §1
(§9) (d) simultaneously expressing α3 subunit (for the protein sequence, see GenBank accession number NM_000808.3), β3 subunit and γ2 subunit in 293 cell line, forming the GABAA receptor containing α3 subunit;
as §7, §8

[6] = biological target: T5, Human recombinant GABAA receptor containing α3 subunit (α3, β3, γ2) (Homo sapiens, UniProt P18507+P34903); test: Competitive radioligand binding ([3H]Ro-0151788) on membranes of 293 cells, Ki; settings: human recombinant GABAA subtype containing α3; read-out: Affinity, nM (α3)
T5 construct: expressed in transfected cells; host or cells: 293 cell line
Protocol: as §1, §2, §9, §4, §5

[7] = system: SNI model rats (neuropathic pain); test: Spared nerve injury (SNI) model, neuropathic pain, mechanical pain threshold; assay type: in vivo; settings: rat
Protocol: Male SD rats (200-250 g) were used, 6 per group in the cage. All the animals were placed under 12 hours light/cycle (i.e. 12 hours light and 12 hours dark in each day), free to food and water. All the experiments were conducted under the condition that the observers were blind to pharmaceutical treatment.
Spared nerve injury model (SNI): 10% chloral hydrate was injected intraperitoneally to anesthetize rats. […] The muscle was longitudinally separated to expose the core of sciatic nerve and the branching below: tibial nerve, common peroneal nerve and sural nerve. The tibial nerve and common peroneal nerve were ligatured and cut and small sural nerve was retained, meanwhile preventing any injury. The muscle and skin were sutured layer by layer, and then antibiotics were injected intraperitoneally for antibacterial purpose. For detailed methods, please refer to Decosterd I and Woolf C J. Spared nerve injury: an animal model of persistent peripheral neuropathic pain. 2000 August; Pain 87(2):149-58.
Method for detecting mechanical hyperalgesia in rats: firstly CFA solution was injected in the thenar of rats. After 24 hours, mechanical hyperalgesia quantitative detection was adopted to measure the paw withdrawal of rats to normal and harmless mechanical stimulation. Evaluation was conducted according to reference (Chaplan S R et al., Quantitative assessment of tactile allodynia in the rat paw. J Neurosci Methods. 1994 July; 53(1):55-63). In this method, the von Frey fibers with different bending force (equivalent to the range of 1-50 g force) were used to apply harmless mechanical stimulation. The rats were placed in organic glass box with metal mesh plate, and the von Frey fibers were applied on the surface of leg thenar. The von Frey fibers were applied vertically to the surface of thenar to generate the force that will trigger slight resistance to the leg. 2-3 seconds were maintained for every leg thenar. If the leg withdrew suddenly, positive records were recorded. The threshold was the mean of the weight that caused 50% paw withdrawal response (5-6 paw withdrawal/10 stimulations) in overall 10 stimulations.
Compounds MRK 016, C2, C3, C4, C5, C6, C7, C8 or α5IA (A5I) were dissolved in 70% PGE400 (PGE400:water=70:30 in volume). For injection dose, MRK016 was 2 mg/kg body weight; A5I was 3 mg/kg body weight; C2, C3, C4, C5, C6, C7 and C8 were 3 mg/kg body weight.
MRK016-M3 was dissolved in 90% PGE400 (PGE400:water=90:10 in volume). The doses were 10 mg/kg, 3 mg/kg, 1 mg/kg and 0.3 mg/kg, respectively for oral administration.
The method for behavioral data statistics was unpaired t-test. *, p<0.05, represents significant difference.

[8] = system: Human recombinant GABAA receptor containing α2 subunit; test: Electrophysiological inverse agonist efficacy on GABA-induced current; assay type: cell-based; settings: change of GABA-induced current; negative = inhibition
Protocol: as §1, §3, §7, §8

[9] = biological target: T6, Human recombinant GABAA receptor containing α1 subunit (Homo sapiens, UniProt P14867+P18507); test: as above; assay type: cell-based; settings: change of GABA-induced current; negative = inhibition
T6 construct: expressed in transfected cells; host or cells: 293 cell line
Protocol: as §1, §3, §7, §8

[10] = human, Phase I; cited from earlier work
[11] = system: α5-GABAA receptor in central nervous system; settings: in vivo, Jones et al. 2006; cited from earlier work
[12] = biological target: T7, Human recombinant GABAA receptor containing α5 subunit (α5, β3, γ2) (Homo sapiens, UniProt P18507+P31644); test: Competitive radioligand binding ([3H]Ro-0151788) on membranes of 293 cells, Ki; settings: human recombinant GABAA subtype containing α5; read-out: Affinity, nM (α5)
T7 construct: expressed in transfected cells; host or cells: 293 cell line
Protocol: as §1, §2, §6, §4, §5

[13] = system: CFA induced inflammatory pain model rats (heat pain); test: CFA induced inflammatory pain model, heat pain threshold; assay type: in vivo; settings: rat, 1 hour after administration
[14] = system: pentetrazol induced epilepsy in rats; test: Pentetrazol induced epilepsy assay; assay type: in vivo; settings: rat, subcutaneous 1, 3, 10 and 15 mg/kg, 100 mg/kg pentetrazol 0.5 hour later
Protocol: Pentetrazol induced epilepsy assays: firstly, C5 or 70% PGE400 was injected to rats, and then 100 mg/kg pentetrazol was subcutaneously injected to rats half an hour later. Pentetrazol was dissolved in saline water. Then the convulsive response of rats was observed. Fatholahi standard was adopted to score the convulsive response. Grade 0, no response; Grade 1, rhythmic mouth and face spasm; Grade 2, fluctuating wandering spasm of body; Grade 3, systemic myoclonus and warped hip; Grade 4, body turning to one side; Grade 5, renvers and systemic tetanic convulsion. It took 30 minutes for observation after administration. The highest grade and the latency time from pentetrazol injection to the induction of the highest grade were collected.

[15] = biological target: T3, Human recombinant α5-GABAA receptor; settings: Jones et al. 2006; cited from earlier work

| Structure (SMILES) | Suppression of mechanical pain ([1]; 2 mg/kg intraperitoneal, 7 days after CFA model, 2 mg/kg) | Ki [2] | Ki [3] | Inverse agonist efficacy, % (α5) [4] | Inverse agonist efficacy, % (α3) [5] | Ki [6] | Suppression of neuropathic pain (mechanical pain threshold) ([7]; subcutaneous injection 2 mg/kg, 7 days after SNI model, 1 hour after administration) | Inverse agonist efficacy, % (α2) [8] | Inverse agonist efficacy, % (α1) [9] | Side effects in Phase I clinical trial [10] | Binding to α5-GABAA receptor in brain / inhibition of (3H)Ro-15-1788 binding in center [11] | Ki [12] | Suppression of heat pain ([13]; 2 mg/kg intraperitoneal, 3 days after CFA model, 2 mg/kg) | CFA induced inflammatory pain model (mechanical pan), analgesic effect ([1]; 3 mg/kg injection, 7 days after CFA, 3 mg/kg) | Neuropathic pain (SNI model), analgesic effect ([7]; 3 mg/kg subcutaneous, 14 days after SNI, 1 hour after administration, 3 mg/kg) | Suppression of neuropathic pain at different time points ([7]; subcutaneous 1 mg/kg or 3 mg/kg, 14 days after SNI, 0.5-12 hours after administration) | Effect on pentetrazol induced epilepsy (responsive grade and latency time) [14] | CFA induced inflammatory pain model (heat pain), analgesic effect ([13]; 3 mg/kg injection, 3 days after CFA, 3 mg/kg) | Inverse agonist effect of α5-GABAA receptor [15] |
| --- | --- | --- | --- | --- | --- | --- | --- | --- | --- | --- | --- | --- | --- | --- | --- | --- | --- | --- | --- |
| Cc1cc(-c2nncc3c(C(C)(C)C)c(OCc4ncnn4C)nn23)no1 [MRK016, 3-tert-butyl-7-(5-methylisoxazol-3-yl)-2-(1-methyl-1H-1,2,4-triazol-5-ylmethoxy)-pyrazolo[1,5-d]-[1,2,4]triazine] | efficiently suppressed mechanical pain; also recorded: efficiently suppress mechanical pain | 0.85 nM | 0.83 nM | −55% | −9% | 0.77 nM | efficiently suppressed neuropathic pain | 6% | −16% | front heaviness, headache and nausea and vomiting | can efficiently inhibit; also recorded: focused in the brain | 1.36 nM | efficiently suppressed heat pain; also recorded: efficiently suppress heat pain |  |  |  |  |  |  |
| OCc1cc(-c2nnc3c4ccccc4c(OCc4ccccn4)nn23)no1 [Compound C5, {3-[6-(Pyridin-2-ylmethoxy)-[1,2,4]triazolo[3,4-a]phthalazin-3-yl]-isoxazol-5-yl}-methanol] |  |  |  |  |  |  |  |  |  |  |  |  |  | efficiently inhibit nociceptive response; also recorded: efficiently suppressed heat pain or mechanical pain response | efficiently inhibit nociceptive response; also recorded: efficiently suppressed neuropathic pain | efficiently could inhibit nociceptive response; also recorded: efficiently suppressed neuropathic pain | no effect | efficiently inhibit nociceptive response; also recorded: efficiently suppressed heat pain or mechanical pain response |  |
| Cc1cc(-c2nncc3c(C(C)(C)CO)c(OCc4ncnn4C)nn23)no1 [MRK016-M2] |  |  | 26 nM | −40% | −32% | 9.8 nM |  | −23% | −41% |  | not capable of binding the α5-GABAA receptor in brain | 9.4 nM |  |  |  |  |  |  | significant inverse agonist effect |
